Source: the supplement of paper PMC10307832

Legend:
Assay in all cases: relative viability (nuclei count vs DMSO), 5 days (fraction); higher = more cells survive
EKVX = system: EKVX
In short: (§1)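 For relative viability, nuclei counts in treated wells were divided by those in vehicle wells. Lung cancer cell lines had been pin-tool dosed in 1536-well plates the day after seeding and cultured for 5 days, then fixed and stained in one step (final 0.05% Triton X-100, 1% formaldehyde, 1 ug/ml Hoechst) and imaged at 4×. Doses were one drug alone or a fixed anchor-drug dose plus five library-drug doses (not always all listed) in √10 steps, and values are duplicate-plate medians.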

HCC-366 = system: HCC-366
In short: as §1

NCI-H1650 = system: NCI-H1650
In short: as §1

NCI-H1975 = system: NCI-H1975
In short: as §1

LC-2-ad = system: LC-2-ad
In short: as §1

SK-LU-1 = system: SK-LU-1
In short: as §1

HARA = system: HARA
In short: as §1

COR-L 105 = system: COR-L 105
In short: as §1

NCI-H596 = system: NCI-H596
In short: as §1

RERF-LC-KJ = system: RERF-LC-KJ
In short: as §1

NCI-H3122 = system: NCI-H3122
In short: as §1

LU99A = system: LU99A
In short: as §1

COR-L23 = system: COR-L23
In short: as §1

HCC-827 = system: HCC-827
In short: as §1

201T = system: 201T
In short: as §1

HCC-15 = system: HCC-15
In short: as §1

NCI-H1755 = system: NCI-H1755
In short: as §1

NCI-H1734 = system: NCI-H1734
In short: as §1

BEN = system: BEN
In short: as §1

NCI-H1944 = system: NCI-H1944
In short: as §1

NCI-H1993 = system: NCI-H1993
In short: as §1

HCC-78 = system: HCC-78
In short: as §1

LXF-289 = system: LXF-289
In short: as §1

O=c1[nH]c2ccccc2n1C1CCN(CCCC(c2ccc(F)cc2)c2ccc(F)cc2)CC1 [Pimozide] + CC1(C)CCC(c2ccc(Cl)cc2)=C(CN2CCN(c3ccc(C(=O)NS(=O)(=O)c4ccc(N[C@H](CCN5CCOCC5)CSc5ccccc5)c(S(=O)(=O)C(F)(F)F)c4)cc3)CC2)C1 [Navitoclax] (partner 0.5 µM)
relative viability (EKVX; first compound 0.253 µM): 0.936
relative viability (EKVX; first compound 0.8 µM): 0.881
relative viability (EKVX; first compound 2.53 µM): 0.89
relative viability (EKVX; first compound 8 µM): 0.946
relative viability (HCC-366; first compound 0.08 µM): 1.01
relative viability (HCC-366; first compound 0.253 µM): 1.12
relative viability (HCC-366; first compound 0.8 µM): 1.02
relative viability (HCC-366; first compound 2.53 µM): 0.986
relative viability (HCC-366; first compound 8 µM): 0.976
relative viability (NCI-H1650; first compound 0.08 µM): 0.979
relative viability (NCI-H1650; first compound 0.253 µM): 1.17
relative viability (NCI-H1650; first compound 0.8 µM): 1.02
relative viability (NCI-H1650; first compound 2.53 µM): 1.21
relative viability (NCI-H1650; first compound 8 µM): 0.761
relative viability (NCI-H1975; first compound 0.08 µM): 1.22
relative viability (NCI-H1975; first compound 0.253 µM): 1.06
relative viability (NCI-H1975; first compound 0.8 µM): 1.08
relative viability (NCI-H1975; first compound 2.53 µM): 1.16
relative viability (NCI-H1975; first compound 8 µM): 0.992
relative viability (LC-2-ad; first compound 0.08 µM): 0.498
relative viability (LC-2-ad; first compound 0.253 µM): 0.509
relative viability (LC-2-ad; first compound 0.8 µM): 0.286
relative viability (LC-2-ad; first compound 2.53 µM): 0.421
relative viability (LC-2-ad; first compound 8 µM): 0.392
relative viability (SK-LU-1; first compound 0.08 µM): 1.09
relative viability (SK-LU-1; first compound 0.253 µM): 0.815
relative viability (SK-LU-1; first compound 0.8 µM): 0.804
relative viability (SK-LU-1; first compound 2.53 µM): 0.76
relative viability (SK-LU-1; first compound 8 µM): 0.809
relative viability (HARA; first compound 0.08 µM): 1.11
relative viability (HARA; first compound 0.253 µM): 1.18
relative viability (HARA; first compound 0.8 µM): 1.1
relative viability (HARA; first compound 2.53 µM): 1.12
relative viability (HARA; first compound 8 µM): 1.14
relative viability (COR-L 105; first compound 0.253 µM): 0.601
relative viability (COR-L 105; first compound 0.8 µM): 0.618
relative viability (COR-L 105; first compound 2.53 µM): 0.816
relative viability (COR-L 105; first compound 8 µM): 0.645
relative viability (NCI-H596; first compound 0.08 µM): 0.92
relative viability (NCI-H596; first compound 0.253 µM): 0.963
relative viability (NCI-H596; first compound 0.8 µM): 0.94
relative viability (NCI-H596; first compound 2.53 µM): 0.677
relative viability (NCI-H596; first compound 8 µM): 0.9
relative viability (RERF-LC-KJ; first compound 0.08 µM): 0.913
relative viability (RERF-LC-KJ; first compound 0.253 µM): 0.855
relative viability (RERF-LC-KJ; first compound 0.8 µM): 0.885
relative viability (RERF-LC-KJ; first compound 2.53 µM): 1.04
relative viability (RERF-LC-KJ; first compound 8 µM): 0.92
relative viability (NCI-H3122; first compound 0.08 µM): 0.987
relative viability (NCI-H3122; first compound 0.253 µM): 1.06
relative viability (NCI-H3122; first compound 0.8 µM): 1.04
relative viability (NCI-H3122; first compound 2.53 µM): 0.982
relative viability (NCI-H3122; first compound 8 µM): 0.957
relative viability (LU99A; first compound 0.08 µM): 0.794
relative viability (LU99A; first compound 0.253 µM): 0.772
relative viability (LU99A; first compound 0.8 µM): 0.716
relative viability (LU99A; first compound 2.53 µM): 0.875
relative viability (LU99A; first compound 8 µM): 0.806
relative viability (COR-L23; first compound 0.08 µM): 1.02
relative viability (COR-L23; first compound 0.253 µM): 0.923
relative viability (COR-L23; first compound 0.8 µM): 0.913
relative viability (COR-L23; first compound 2.53 µM): 1.14
relative viability (COR-L23; first compound 8 µM): 0.933
relative viability (HCC-827; first compound 0.253 µM): 1.03
relative viability (HCC-827; first compound 0.8 µM): 0.897
relative viability (HCC-827; first compound 2.53 µM): 0.999
relative viability (HCC-827; first compound 8 µM): 0.981
relative viability (201T; first compound 0.08 µM): 1.19
relative viability (201T; first compound 0.253 µM): 1.25
relative viability (201T; first compound 0.8 µM): 1.19
relative viability (201T; first compound 2.53 µM): 1.18
relative viability (201T; first compound 8 µM): 1.15
relative viability (HCC-15; first compound 0.08 µM): 0.797
relative viability (HCC-15; first compound 0.253 µM): 0.724
relative viability (HCC-15; first compound 0.8 µM): 0.66
relative viability (HCC-15; first compound 2.53 µM): 0.636
relative viability (HCC-15; first compound 8 µM): 0.621
relative viability (NCI-H1755; first compound 0.08 µM): 0.963
relative viability (NCI-H1755; first compound 0.253 µM): 0.941
relative viability (NCI-H1755; first compound 0.8 µM): 0.969
relative viability (NCI-H1755; first compound 2.53 µM): 0.882
relative viability (NCI-H1755; first compound 8 µM): 0.771
relative viability (NCI-H1734; first compound 0.08 µM): 0.894
relative viability (NCI-H1734; first compound 0.253 µM): 0.806
relative viability (NCI-H1734; first compound 0.8 µM): 0.764
relative viability (NCI-H1734; first compound 2.53 µM): 0.83
relative viability (NCI-H1734; first compound 8 µM): 0.836
relative viability (BEN; first compound 0.08 µM): 0.0678
relative viability (BEN; first compound 0.253 µM): 0.06
relative viability (BEN; first compound 0.8 µM): 0.0809
relative viability (BEN; first compound 2.53 µM): 0.0665
relative viability (BEN; first compound 8 µM): 0.0584
relative viability (NCI-H1944; first compound 0.08 µM): 0.945
relative viability (NCI-H1944; first compound 0.253 µM): 1.05
relative viability (NCI-H1944; first compound 0.8 µM): 0.926
relative viability (NCI-H1944; first compound 2.53 µM): 1.03
relative viability (NCI-H1944; first compound 8 µM): 0.995
relative viability (NCI-H1993; first compound 0.08 µM): 0.797
relative viability (NCI-H1993; first compound 0.253 µM): 0.826
relative viability (NCI-H1993; first compound 0.8 µM): 0.91
relative viability (NCI-H1993; first compound 2.53 µM): 0.933
relative viability (NCI-H1993; first compound 8 µM): 0.806
relative viability (HCC-78; first compound 0.08 µM): 0.764
relative viability (HCC-78; first compound 0.253 µM): 0.717
relative viability (HCC-78; first compound 0.8 µM): 0.893
relative viability (HCC-78; first compound 2.53 µM): 0.71
relative viability (HCC-78; first compound 8 µM): 0.691
relative viability (LXF-289; first compound 0.08 µM): 0.9
relative viability (LXF-289; first compound 0.253 µM): 0.93
relative viability (LXF-289; first compound 0.8 µM): 0.91
relative viability (LXF-289; first compound 2.53 µM): 0.896
relative viability (LXF-289; first compound 8 µM): 0.84
